# From US9096494B2, “Arachidonic acid analogs and methods for analgesic treatment using same” (priority 2009, dated 2015)
# Several values for one entry are separate records, joined by “and”; a condition that tells them apart may be missing. Equal entries are not always repeated.
# Assays:
# Adenosine/A2A = biological target: T1, Adenosine/A2A (Homo sapiens, UniProt P29274); assay: Cerep BioPrint dependence and addiction panel; type: binding
# T1 construct: Cerep (contract screen)
# Steroid nuclear/GR = biological target: T2, Steroid nuclear/GR (Homo sapiens, UniProt P04150); assay: Cerep BioPrint dependence and addiction panel; type: binding
# T2 construct: Cerep (contract screening panel)
# [1] = LD50 established using mice; type: in vivo; conditions: in vivo, body surface area translation mouse to human
# Method: (§1) LD50 (abbreviation for “Lethal Dose, 50%”) is established using mice. The dose translation between mouse and human is based on body surface area allometric translation. For example, a 1 mg/kg mouse dose is equivalent to a 0.08 mg/kg human dose. For more information on species dose translation see: Reagan-Shaw et. al, FASEB J. 122, 659-661 (2007).
# mice [2] = assay: LD50 established using mice; type: in vivo
# Method: as §1
# TRPV1(VR1) agonist = biological target: T3, TRPV1(VR1) agonist (Rattus norvegicus, UniProt O35433); assay: Cerep BioPrint receptor binding
# T3 construct: Cerep (contract screen)
# Glutamate/PCP = assay: Cerep BioPrint dependence and addiction panel; type: binding
# [3] = system: Dopamine transporter/5HT transporter; assay: Cerep BioPrint dependence and addiction panel; type: binding
# CB2 Cannabinoid agonist = biological target: T4, CB2 Cannabinoid agonist (Homo sapiens, UniProt P34972); assay: Cerep BioPrint receptor binding
# T4 construct: Cerep (contract screen)
# Method: (§2) For the initial BioPrint screen, a free compound concentration of 10 μM was used, which corresponds to a 2.5 mg/kg bolus dose in a mouse. […] Thus, a 2.5 mg/kg bolus dose would be equivalent to a […] free compound concentration.
# κ-opioid agonist = biological target: T5, κ-opioid agonist (Rattus norvegicus, UniProt P34975); assay: Cerep BioPrint receptor binding
# T5 construct: Cerep (contract screen)
# Method: as §2
# CB1 Cannabinoid agonist = biological target: T6, CB1 Cannabinoid agonist (Homo sapiens, UniProt P21554); assay: Cerep BioPrint receptor binding
# T6 construct: Cerep (contract screen)
# Method: as §2
# δ- opioid agonist = biological target: T7, δ- opioid agonist (Homo sapiens, UniProt P41143); assay: Cerep BioPrint receptor binding
# T7 construct: Cerep (contract screen)
# Method: as §2
# [4] = Analgesic potency comparison with natural EETs and AM404; conditions: in vivo
# From the text: Chemically, it is close structural analog of a set of lipid mediators derived from arachidonic acid that the body uses to control pain.
# mice [5] = assay: Tail-flick assay in mouse; type: in vivo; conditions: 10 mg/kg intravenous bolus
# Method: The tail-flick assay is based on the time measured to reflex withdrawal of the tail in response to a radiant heat source. The maximum exposure time to the radiant heat source is set at 10 seconds. Prior to treatment, a baseline (BL) time measured to tail-flick withdrawal is determined after two exposures to the radiant source separated by a 30 min period. Control mice are intravenously treated with vehicle and test mice are intravenously treated with analgesic test compound. Data of tail-flick withdrawal of treated mice (TM) are calculated as maximum possible effect (MPE), where MPE=(TM−BL)/(10−BL). Tail-flick withdrawal is measured at 5 min, 15 min, 30 mm, and 1 hr. A total of 3-5 mice are used for each time point tested.
# [6] = biological target: T8, Serotonin/5HT transporter (Homo sapiens, UniProt P31645); assay: Cerep BioPrint dependence and addiction panel; type: binding
# T8 construct: Cerep (contract screening panel)
# Melanocortin/MC4 = biological target: T9, Melanocortin/MC4 (Homo sapiens, UniProt P32245); assay: Cerep BioPrint dependence and addiction panel; type: binding
# T9 construct: Cerep (contract screen)
# [7] = Intravenous analgesia: onset and duration of effect
# Dopamine/D1 = Dopamine/D1 (Homo sapiens, UniProt P21728); assay: Cerep BioPrint dependence and addiction panel; type: binding
# Cholecystokinin/CCK2 = biological target: T10, Cholecystokinin/CCK2 (Homo sapiens, UniProt P32239); assay: Cerep BioPrint dependence and addiction panel; type: binding
# T10 construct: Cerep (contract screen)
# A3 agonist-Adenosine A3 = biological target: T11, A3 agonist-Adenosine A3 (Homo sapiens, UniProt P0DMS8); assay: Cerep BioPrint receptor binding
# T11 construct: Cerep (contract screen)
# GABA/GABAB(1b) = biological target: T12, GABA/GABAB(1b) (Homo sapiens, UniProt Q9UBS5); assay: Cerep BioPrint dependence and addiction panel; type: binding
# T12 construct: Cerep (contract screen)
# Opioid/mu(MOP) = biological target: T13, Opioid/mu(MOP) (Homo sapiens, UniProt P35372); assay: Cerep BioPrint dependence and addiction panel; type: binding
# T13 construct: Cerep (contract screening panel)
# Serotonin/5-HT3 = Serotonin/5-HT3 (Homo sapiens, UniProt P46098); assay: Cerep BioPrint dependence and addiction panel; type: binding
# Glutamate/AMPA = assay: Cerep BioPrint dependence and addiction panel; type: binding
# [8] = biological target: T14, MT1(ML1A) agonist-Melatonin (Homo sapiens, UniProt P48039); assay: Cerep BioPrint receptor binding
# T14 construct: Cerep (contract screen)
# Dopamine/D3 = Dopamine/D3 (Homo sapiens, UniProt P35462); assay: Cerep BioPrint dependence and addiction panel; type: binding
# [9] = biological target: T15, Dopamine/dopamine transporter (Homo sapiens, UniProt Q01959); assay: Cerep BioPrint dependence and addiction panel; type: binding
# T15 construct: Cerep (contract screening panel)
# dopamine levels = assay: Effect on dopamine levels; conditions: compared with Δ9-THC
# [10] = biological target: CL-Channel (GABA gated) antagonist; assay: Cerep BioPrint receptor binding
# Opioid/NOP(ORL1) = biological target: T16, Opioid/NOP(ORL1) (Homo sapiens, UniProt P41146); assay: Cerep BioPrint dependence and addiction panel; type: binding
# T16 construct: Cerep (contract screening panel)
# Serotonin/5-HT1A = biological target: T17, Serotonin/5-HT1A (Homo sapiens, UniProt P08908); assay: Cerep BioPrint dependence and addiction panel; type: binding
# T17 construct: Cerep (contract screen)
# ATPase/ATPase(Na+/K+) = assay: Cerep BioPrint dependence and addiction panel (enzyme); type: biochemical
# mice [11] = assay: Writhing assay in mouse (bolus and continuous infusion); type: in vivo
# [12] = LC/MS pharmacokinetics of CMX-020 in mice (plasma, brain, liver); conditions: 15 min timepoint, 10 mg/kg iv, n=2 individual values
# plasma or serum proteins = assay: Binding to plasma or serum proteins; type: in vitro ADME
# Method: as §2
# [13] = system: CB1 cannabinoid knockout mice; assay: Analgesic effect in CB1 cannabinoid knockout mice; type: in vivo; conditions: CB1 cannabinoid knockout mice (homozygotes)
# [14] = system: TRPV1 vanilloid knockout mice; assay: Analgesic effect in TRPV1 vanilloid knockout mice; type: in vivo; conditions: TRPV1 vanilloid knockout mice (homozygotes)
# [15] = system: Sigma/Sigma non selective; assay: Cerep BioPrint dependence and addiction panel; type: binding
# Dopamine/D2S = Dopamine/D2S (Homo sapiens, UniProt P14416); assay: Cerep BioPrint dependence and addiction panel; type: binding
# Antipyretic effect = type: in vivo, mice; conditions: CMX-020 Injectable Solution
# Method: CMX-020 Injectable Solution may also be given to patients during surgery or dental procedures to relieve pain and as an adjunct to an anaesthetic.
# Recordings of body temperature in male mice (30 grams) were achieved using a mouse rectal temperature probe. Baseline was recorded twice for 10 minutes at intervals of 2 minutes with a 15 minute span of no recording.
# Serotonin/5-Ht2A = biological target: T18, Serotonin/5-Ht2A (Homo sapiens, UniProt P28223); assay: Cerep BioPrint dependence and addiction panel; type: binding
# T18 construct: Cerep (contract screen)
# in vivo = conditions: mouse, iv, 10 mg/kg
# GABA/GABAA = assay: Cerep BioPrint dependence and addiction panel; type: binding
# [16] = biological target: PPRA-Peroxisome proliferator-activated (Homo sapiens, UniProt P37231); assay: Cerep BioPrint receptor binding
# [17] = CMX-020 Injectable Emulsion, from mouse writhing assay
# [18] = continuous infusion, from mouse writhing assay
# T6 sequence (P21554 whole entry): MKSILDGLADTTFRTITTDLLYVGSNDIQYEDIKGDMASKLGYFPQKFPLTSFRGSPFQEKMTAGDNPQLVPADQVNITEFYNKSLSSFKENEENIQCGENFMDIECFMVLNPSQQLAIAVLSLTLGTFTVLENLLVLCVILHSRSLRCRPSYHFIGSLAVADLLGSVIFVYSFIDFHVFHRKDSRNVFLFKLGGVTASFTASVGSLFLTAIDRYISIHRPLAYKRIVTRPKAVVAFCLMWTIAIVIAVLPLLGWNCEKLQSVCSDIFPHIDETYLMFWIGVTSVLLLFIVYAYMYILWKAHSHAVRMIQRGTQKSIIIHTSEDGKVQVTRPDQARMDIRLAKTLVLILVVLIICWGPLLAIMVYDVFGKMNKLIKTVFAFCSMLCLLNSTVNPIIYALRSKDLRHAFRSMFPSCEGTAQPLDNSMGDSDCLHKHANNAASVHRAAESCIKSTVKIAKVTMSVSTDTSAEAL
# T5 sequence (P34975 whole entry): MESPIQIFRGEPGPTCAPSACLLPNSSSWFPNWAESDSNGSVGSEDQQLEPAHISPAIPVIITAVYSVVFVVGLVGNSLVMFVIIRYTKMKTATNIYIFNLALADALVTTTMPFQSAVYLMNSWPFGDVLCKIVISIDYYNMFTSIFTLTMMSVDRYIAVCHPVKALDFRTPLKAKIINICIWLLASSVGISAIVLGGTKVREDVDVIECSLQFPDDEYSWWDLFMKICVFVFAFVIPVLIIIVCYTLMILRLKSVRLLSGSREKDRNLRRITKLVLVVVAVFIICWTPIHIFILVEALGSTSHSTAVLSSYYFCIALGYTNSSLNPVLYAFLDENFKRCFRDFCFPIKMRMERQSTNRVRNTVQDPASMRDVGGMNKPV
# T11 sequence (P0DMS8 whole entry): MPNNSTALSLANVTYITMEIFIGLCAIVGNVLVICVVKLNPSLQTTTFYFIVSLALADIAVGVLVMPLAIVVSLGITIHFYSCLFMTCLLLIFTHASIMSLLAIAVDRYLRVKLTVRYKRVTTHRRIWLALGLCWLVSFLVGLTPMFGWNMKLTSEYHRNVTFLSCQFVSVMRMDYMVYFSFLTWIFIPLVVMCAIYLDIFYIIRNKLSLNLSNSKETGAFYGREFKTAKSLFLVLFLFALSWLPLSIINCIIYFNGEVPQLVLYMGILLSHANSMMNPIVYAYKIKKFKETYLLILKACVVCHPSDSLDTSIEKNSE
# T14 sequence (P48039 whole entry): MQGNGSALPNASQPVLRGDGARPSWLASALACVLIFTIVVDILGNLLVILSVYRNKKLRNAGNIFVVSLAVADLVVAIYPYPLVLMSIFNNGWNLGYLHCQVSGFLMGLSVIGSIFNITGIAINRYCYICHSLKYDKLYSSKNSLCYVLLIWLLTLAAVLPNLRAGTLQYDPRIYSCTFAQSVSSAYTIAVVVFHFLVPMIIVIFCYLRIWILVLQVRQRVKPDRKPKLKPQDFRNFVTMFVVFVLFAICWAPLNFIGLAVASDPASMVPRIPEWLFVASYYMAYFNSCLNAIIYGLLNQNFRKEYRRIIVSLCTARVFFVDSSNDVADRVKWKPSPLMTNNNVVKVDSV
# T7 sequence (P41143 whole entry): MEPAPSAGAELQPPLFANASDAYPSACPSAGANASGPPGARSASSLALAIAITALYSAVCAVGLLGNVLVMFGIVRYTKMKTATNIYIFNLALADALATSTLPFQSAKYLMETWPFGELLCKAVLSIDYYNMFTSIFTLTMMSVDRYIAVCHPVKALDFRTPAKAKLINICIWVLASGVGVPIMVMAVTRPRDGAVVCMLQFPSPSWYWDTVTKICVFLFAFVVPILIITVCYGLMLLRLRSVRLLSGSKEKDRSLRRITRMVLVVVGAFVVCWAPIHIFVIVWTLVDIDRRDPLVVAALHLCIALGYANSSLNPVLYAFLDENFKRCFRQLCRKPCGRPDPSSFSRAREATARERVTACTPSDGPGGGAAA
# T4 sequence (P34972 whole entry): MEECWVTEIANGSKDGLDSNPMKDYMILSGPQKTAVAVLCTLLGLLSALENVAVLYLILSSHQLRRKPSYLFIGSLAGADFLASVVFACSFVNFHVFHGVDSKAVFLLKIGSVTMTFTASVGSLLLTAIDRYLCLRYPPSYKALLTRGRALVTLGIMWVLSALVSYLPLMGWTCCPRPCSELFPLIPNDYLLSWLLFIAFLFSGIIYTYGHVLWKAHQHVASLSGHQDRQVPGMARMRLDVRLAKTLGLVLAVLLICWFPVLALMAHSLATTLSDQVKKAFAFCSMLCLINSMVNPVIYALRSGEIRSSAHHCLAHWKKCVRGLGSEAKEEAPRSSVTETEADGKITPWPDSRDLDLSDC
# T3 sequence (O35433 whole entry): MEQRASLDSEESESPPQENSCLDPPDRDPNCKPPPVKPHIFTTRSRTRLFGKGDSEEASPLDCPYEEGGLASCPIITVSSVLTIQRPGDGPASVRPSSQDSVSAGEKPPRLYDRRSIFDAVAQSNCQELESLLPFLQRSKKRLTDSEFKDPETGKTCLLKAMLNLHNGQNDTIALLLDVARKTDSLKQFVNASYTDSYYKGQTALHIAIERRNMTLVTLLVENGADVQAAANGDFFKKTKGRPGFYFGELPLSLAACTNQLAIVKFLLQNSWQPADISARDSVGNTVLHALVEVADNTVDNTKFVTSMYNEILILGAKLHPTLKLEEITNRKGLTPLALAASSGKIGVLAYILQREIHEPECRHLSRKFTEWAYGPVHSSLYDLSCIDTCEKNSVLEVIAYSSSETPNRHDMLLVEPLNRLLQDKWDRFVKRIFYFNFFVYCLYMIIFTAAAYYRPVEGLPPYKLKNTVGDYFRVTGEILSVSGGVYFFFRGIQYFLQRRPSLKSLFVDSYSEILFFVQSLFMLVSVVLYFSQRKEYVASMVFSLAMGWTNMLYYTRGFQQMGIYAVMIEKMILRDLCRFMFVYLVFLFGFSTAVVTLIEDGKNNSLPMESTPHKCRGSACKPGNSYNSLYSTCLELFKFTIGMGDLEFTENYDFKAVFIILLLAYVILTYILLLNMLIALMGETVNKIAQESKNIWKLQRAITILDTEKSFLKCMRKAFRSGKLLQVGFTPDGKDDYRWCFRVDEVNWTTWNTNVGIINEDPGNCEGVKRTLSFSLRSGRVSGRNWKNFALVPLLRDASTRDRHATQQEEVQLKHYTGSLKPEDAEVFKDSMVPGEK
# Chain of Dopamine/D2S (P14416 other isoform, or with tags, fused parts or gaps): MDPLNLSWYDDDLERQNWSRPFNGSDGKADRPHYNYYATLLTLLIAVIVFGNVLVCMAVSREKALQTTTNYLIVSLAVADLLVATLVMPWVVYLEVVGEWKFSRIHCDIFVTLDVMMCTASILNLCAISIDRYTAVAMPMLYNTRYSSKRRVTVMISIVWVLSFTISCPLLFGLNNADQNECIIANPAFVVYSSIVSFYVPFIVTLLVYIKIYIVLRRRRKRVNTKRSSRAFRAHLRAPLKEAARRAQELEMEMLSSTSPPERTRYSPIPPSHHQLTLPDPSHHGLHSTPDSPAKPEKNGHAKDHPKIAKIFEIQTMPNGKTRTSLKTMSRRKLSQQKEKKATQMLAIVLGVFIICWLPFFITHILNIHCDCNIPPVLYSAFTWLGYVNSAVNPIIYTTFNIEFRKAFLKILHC
# T16 sequence (P41146 whole entry, species assumed): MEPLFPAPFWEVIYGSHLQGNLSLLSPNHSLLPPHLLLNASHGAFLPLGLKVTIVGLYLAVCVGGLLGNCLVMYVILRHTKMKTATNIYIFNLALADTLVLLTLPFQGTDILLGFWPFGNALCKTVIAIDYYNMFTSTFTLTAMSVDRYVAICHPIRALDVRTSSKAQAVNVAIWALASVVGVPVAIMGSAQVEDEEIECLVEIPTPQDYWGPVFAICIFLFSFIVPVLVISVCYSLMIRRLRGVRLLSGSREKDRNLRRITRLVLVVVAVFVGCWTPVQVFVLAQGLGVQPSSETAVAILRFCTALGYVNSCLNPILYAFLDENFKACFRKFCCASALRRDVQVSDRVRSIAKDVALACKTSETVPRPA
# T10 sequence (P32239 whole entry): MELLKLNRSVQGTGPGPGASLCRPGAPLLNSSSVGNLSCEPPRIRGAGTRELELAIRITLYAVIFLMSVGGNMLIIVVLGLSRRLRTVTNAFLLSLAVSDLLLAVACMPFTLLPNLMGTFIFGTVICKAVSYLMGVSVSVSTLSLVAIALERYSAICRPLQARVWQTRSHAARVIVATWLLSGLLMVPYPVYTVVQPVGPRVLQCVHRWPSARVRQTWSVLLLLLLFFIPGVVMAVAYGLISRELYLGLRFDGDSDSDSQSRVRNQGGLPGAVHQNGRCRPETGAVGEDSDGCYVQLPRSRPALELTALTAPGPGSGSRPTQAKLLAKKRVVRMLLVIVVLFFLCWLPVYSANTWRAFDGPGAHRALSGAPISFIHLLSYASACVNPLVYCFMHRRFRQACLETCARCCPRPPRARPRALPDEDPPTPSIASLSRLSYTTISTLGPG
# T18 sequence (P28223 whole entry): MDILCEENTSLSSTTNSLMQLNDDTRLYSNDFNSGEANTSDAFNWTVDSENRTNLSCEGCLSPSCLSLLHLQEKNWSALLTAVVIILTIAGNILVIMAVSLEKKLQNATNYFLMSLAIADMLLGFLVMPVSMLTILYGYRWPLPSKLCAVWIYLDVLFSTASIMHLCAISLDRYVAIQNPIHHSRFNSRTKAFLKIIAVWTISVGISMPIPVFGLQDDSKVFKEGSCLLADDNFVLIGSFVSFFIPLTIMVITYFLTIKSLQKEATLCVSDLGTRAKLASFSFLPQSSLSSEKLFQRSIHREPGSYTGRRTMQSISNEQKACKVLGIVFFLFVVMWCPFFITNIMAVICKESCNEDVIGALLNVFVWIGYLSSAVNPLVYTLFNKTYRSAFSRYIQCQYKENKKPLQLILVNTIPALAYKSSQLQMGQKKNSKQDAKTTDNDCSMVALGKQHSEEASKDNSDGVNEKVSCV
compound,measurement,setting,value
CCCCCC(=O)N(CC/C=C\C/C=C\C/C=C\CCCC(=O)NC1CC1)C(C)C [CMX-020],inhibition at 10 µM,Adenosine/A2A,7%
same,inhibition at 10 µM,Steroid nuclear/GR,9%
same,LD50,[1],2.4 mg/kg
same,"LD50 CMX-020 Doses, Maintenance",mice [2]; body surface area translation mouse to human,6.4 mg/kg/h
same,"LD50 CMX-020 Doses, Bolus",mice [2]; for a 70 kg human,170 mg
same,"LD50 CMX-020 Doses, Maintenance",mice [2]; for a 70 kg human,450 mg/h
same,IC50,TRPV1(VR1) agonist,7.5 µM
same,% Inhibition @10 uM,"TRPV1(VR1) agonist; TRPV1(VR1) agonist, 10 uM",59%
same,% Inhibition @10 uM,Glutamate/PCP,−6%
same,% Inhibition @10 uM,[3],15%
same,IC50,CB2 Cannabinoid agonist,150 nM
same,inhibition at 10 µM,"CB2 Cannabinoid agonist; CB2 Cannabinoid agonist, 10 uM",98%
same,IC50,κ-opioid agonist,4.7 µM
same,inhibition at 10 µM,"κ-opioid agonist; κ-opioid agonist, 10 uM",61%
same,IC50,CB1 Cannabinoid agonist,21 nM
same,inhibition at 10 µM,"CB1 Cannabinoid agonist; CB1 Cannabinoid agonist, 10 uM",98%
same,IC50,δ- opioid agonist,13 µM
same,inhibition at 10 µM,"δ- opioid agonist; δ- opioid agonist, 10 uM",52%
same,analgesic potency in side-by-side comparison with AM404,[4],more potent analgesic without the toxic effects
same,"time to maximal (full) analgesic response, tail-flick",mice [5],5 min
same,inhibition at 10 µM,[6],10%
same,inhibition at 10 µM,Melanocortin/MC4,0%
same,time to peak effect,[7]; animal tests,within minutes
same,time for which sustained levels of analgesia can be maintained,[7]; continuous infusion,≥ 48 h
same,onset of analgesia after intravenous bolus injection or infusion,[7]; from the start of injection,3 to 5 min
same,half-time of the blood-brain equilibration,[7]; intravenous,1 to 3 min
same,duration of analgesic effect from bolus injection,[7]; intravenous bolus,20 to 30 min and 20 to 25 min
same,% Inhibition @10 uM,Dopamine/D1,7%
same,inhibition at 10 µM,Cholecystokinin/CCK2,-27%
same,IC50,A3 agonist-Adenosine A3,2600 nM
same,inhibition at 10 µM,"A3 agonist-Adenosine A3; A3 agonist-Adenosine A3, 10 uM",64%
same,inhibition at 10 µM,GABA/GABAB(1b),-6%
same,inhibition at 10 µM,Opioid/mu(MOP),26%
same,% Inhibition @10 uM,Serotonin/5-HT3,−1%
same,% Inhibition @10 uM,Glutamate/AMPA,9%
same,solubility in water,Solubility in water,very slightly soluble
same,IC50,[8],1200 nM
same,inhibition at 10 µM,"[8]; MT1(ML1A) agonist-Melatonin, 10 uM",88%
same,% Inhibition @10 uM,Dopamine/D3,25%
same,inhibition at 10 µM,[9],15%
same,effect on dopamine levels,dopamine levels,does not elevate dopamine levels
same,IC50,[10],5.1 µM
same,inhibition at 10 µM,Opioid/NOP(ORL1),5%
same,% Inhibition @10 uM,Serotonin/5-HT1A,26%
same,% Inhibition @10 uM,ATPase/ATPase(Na+/K+),12%
same,"continuous infusion dose producing roughly the same level of analgesia (roughly 50% MPE), writhing assay","mice [11]; 24 hour infusion by Alzet pump, measured at 3 hours and 20 hours, preliminary",2 mg/kg/h
same,"analgesic response compared with Perfalgan 12.5 mg/kg, writhing assay",mice [11]; CMX-020 0.05 mg/kg,higher analgesic response than Perfalgan
same,"Analgesic Equivalent to Acetaminophen 2x, Bolus dose",mice [11]; [17],0.02 mg/kg
same,"Analgesic Equivalent to Acetaminophen 3x, Bolus dose",mice [11]; [17],0.04 mg/kg
same,time over which analgesic levels are sustained by continuous infusion,mice [11]; continuous infusion in mice,24 h
same,"Analgesic Equivalent to Acetaminophen 1x, Maintenance dose",mice [11]; [18],0.08 mg/kg/h
same,"Analgesic Equivalent to Acetaminophen 2x, Maintenance dose",mice [11]; [18],0.16 mg/kg/h
same,"Analgesic Equivalent to Acetaminophen 3x, Maintenance dose",mice [11]; [18],0.32 mg/kg/h
same,"Analgesic Equivalent to Acetaminophen 1x, Bolus dose",mice [11]; for a 70 kg human,0.6 mg
same,"Analgesic Equivalent to Acetaminophen 1x, Maintenance dose",mice [11]; for a 70 kg human,6 mg/h
same,"Analgesic Equivalent to Acetaminophen 2x, Bolus dose",mice [11]; for a 70 kg human,1.4 mg
same,"Analgesic Equivalent to Acetaminophen 2x, Maintenance dose",mice [11]; for a 70 kg human,11 mg/h
same,"Analgesic Equivalent to Acetaminophen 3x, Bolus dose",mice [11]; for a 70 kg human,2.8 mg
same,"Analgesic Equivalent to Acetaminophen 3x, Maintenance dose",mice [11]; for a 70 kg human,23 mg/h
same,"dose achieving 100% MPE, writhing assay",mice [11]; intravenous bolus,approximately 0.5 mg/kg
same,dose dependence of the level of analgesia,mice [11]; mouse writhing assay,dose dependent
same,"Analgesic Equivalent to Acetaminophen 1x, Bolus dose","mice [11]; mouse, in vivo, iv",0.01 mg/kg
same,amount present in brain,[12],843 ng/g tissue
same,amount present in liver,[12],211 ng/g tissue
same,fraction unbound,plasma or serum proteins,~0.01
same,analgesic effect in knockout mice,[13],almost completely blocked
same,analgesic effect in knockout mice,[14],altered
same,% Inhibition @10 uM,[15],31%
same,% Inhibition @10 uM,Dopamine/D2S,8%
same,duration of the antipyretic effect after ending administration,Antipyretic effect,at least 2 hours
same,time to fever reduction after the start of administration,Antipyretic effect,≤ 30 min
same,inhibition at 10 µM,Serotonin/5-Ht2A,29%
same,concentration at 15 min,in vivo; brain,704 ng/g
same,concentration at 60 min,in vivo; brain,< 20 ng/g
same,concentration at 15 min,in vivo; liver,170 ng/g
same,concentration at 60 min,in vivo; liver,< 20 ng/g
same,C0,in vivo; plasma,~14000 ng/mL and ~33 µM
same,half-life,in vivo; plasma,~17 min
same,% Inhibition @10 uM,GABA/GABAA,11%
same,inhibition at 10 µM,[16],58%
